{
  "source": "patent US20210253518A1",
  "about": "“KINASE INHIBITOR” (NISSAN CHEMICAL CORPORATION, priority 2018, published 2021)",
  "key": {"[1]": {"test_system": "colitis model administered with dextran sulfate sodium (DSS)", "assay": "DSS colitis model mouse, length of the large intestine", "type": "in vivo", "settings": "2.5 w/v % DSS drinking water, 50 mg/kg intraperitoneally every 24 hr, day 8, vs 0.5% MC, FIG. 3", "protocol": "Colitis model administered with dextran sulfate sodium (DSS) (manufactured by FUJIFILM Wako Pure Chemical Corporation) was produced as described below. The length of the large intestine is used as a morphological parameter in the evaluation of colitis, and the large intestine shortens according to the degree of inflammation. Therefore, the anti-inflammatory effect of the compound was evaluated by comparing the length of the large intestine.\nCompound K-1:J-1 was prepared as a 0.5 w/v % methylcellulose aqueous solution (0.5% MC, manufactured by FUJIFILM Wako Pure Chemical Corporation) at 5 mg/mL and intraperitoneally administered at 50 mg/kg per administration. 0.5% MC was administered to the negative control.\nAs the mouse, male C57BL/6NCrl, 6-week-old, was purchased from CHARLES RIVER LABORATORIES JAPAN, INC. As drinking water, distilled water or a 2.5 w/v % DSS aqueous solution was freely given. The DSS drinking start date was set as day 1, and the water was given until day 8. Compound K-1:J-1 was intraperitoneally administered at 50 mg/kg every 24 hr from day 1. On day 8, the mouse was dissected, the large intestine was isolated and the length of the large intestine was measured. Conducted in 4 cases in each group."}, "[2]": {"test_system": "full-thickness skin wound", "assay": "Mouse full-thickness skin wound model", "type": "in vivo", "settings": "1 mg/mL, 0.04 mL per wound site every 24 hr until day 12, negative control 854.2±119.2", "protocol": "A full-thickness skin wound in which the skin on the back of a mouse was partially removed was prepared as described below, and the wound therapy promoting effect of the compound was evaluated by comparing the reduction rate of the wound area.\nCompound K-1:J-1 was dissolved in a solvent (10% Pluronic F-68, 2% Propylene Glycol, 20 mM Tris buffer (pH 8.5)) at a concentration of 1 mg/mL, and administered by adding dropwise to the wound site (0.04 mL per one wound site). To the negative control, the solvent alone was administered by dropwise addition.\nAs the mouse, male BKS.Cg-Dock7m+/+Leprdb/J, 7-week-old, was purchased from CHARLES RIVER LABORATORIES JAPAN, INC. After removing the hair on the back, an 8 mm full-thickness skin wound was prepared using biopsy trepan (Kai Corporation) and protected with a coating material (Tegaderm transparent dressing, 3M). The wound preparation date was set as day 1, and 1 mg/mL compound K-1:J-1 was added dropwise at a dose of 0.04 mL per wound site every 24 hr until day 12. The area of the wound site was measured on days 1, 3, 6, 9, 13. The wound area on day 1 was set to 100%, and the total measured area was calculated as a percentage (%) with respect to the wound preparation date. Conducted in 6 cases in each group."}},
  "data": [
    {"compound": "CC/C(=N\\NC(=O)NCc1cccc(O)c1)c1ccc(O)c(C)c1O", "note": "[k-1:J-1]", "values": [
      {"measurement": "length of the large intestine", "setting": "[1]", "value": "shortening of the large intestine was suppressed more"},
      {"measurement": "area under the wound area ratio (Area Under the Curve (AUC))", "setting": "[2]", "value": "659.6±163.7", "unit": "%×day"}
    ]}
  ]
}
